Where “and” joins values, the source holds several entries; their conditions need not be identical. Identical values can stand only once. Toxic doses and inconclusive results are not listed. Rule as the data show it: active = T/C of 150% or more; inactive = T/C below 125%.
Test system: L1210 leukemia ip in BDF1 mice, survival T/C
Test: NCI In Vivo Anticancer Drug Screen. Data for tumor model L1210 Leukemia (intraperitoneal) in B6D2F1 (BDF1) mice
Conditions: higher = longer survival
How it was run: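 Survival endpoint. Drug-treated group vs vehicle group, expressed as T divided by C. Tumor passaged by transplantation.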

[1] = endpoint: mean survival time, dose: 100.0 mg/kg/injection, schedule: Q01DX001 (ip), vehicle: saline with Tween-80
[2] = endpoint: mean survival time, dose: 100.0 mg/kg/injection, schedule: Q01DX009 (ip), vehicle: saline with Tween-80
[3] = endpoint: mean survival time, dose: 100.0 mg/kg/injection, schedule: Q04DX002 (ip), vehicle: saline with Tween-80
[4] = endpoint: mean survival time, dose: 200.0 mg/kg/injection, schedule: Q01DX009 (ip), vehicle: saline with Tween-80
[5] = endpoint: mean survival time, dose: 200.0 mg/kg/injection, schedule: Q04DX002 (ip), vehicle: saline with Tween-80
[6] = endpoint: mean survival time, dose: 400.0 mg/kg/injection, schedule: Q04DX002 (ip), vehicle: saline with Tween-80
[7] = endpoint: mean survival time, dose: 100.0 mg/kg/injection, schedule: Q04DX003 (ip), vehicle: Klucel (hydroxypropylcellulose) (HPC)
[8] = endpoint: mean survival time, dose: 50.0 mg/kg/injection, schedule: Q01DX009 (ip), vehicle: saline with Tween-80
[9] = endpoint: mean survival time, dose: 25.0 mg/kg/injection, schedule: Q01DX009 (ip), vehicle: saline
[10] = endpoint: mean survival time, dose: 50.0 mg/kg/injection, schedule: Q01DX009 (ip), vehicle: saline
[11] = endpoint: mean survival time, dose: 100.0 mg/kg/injection, schedule: Q01DX001 (ip), vehicle: other
[12] = endpoint: mean survival time, dose: 200.0 mg/kg/injection, schedule: Q01DX001 (ip), vehicle: other

Measured: T/C

CCOc1ccc(NC(=O)Oc2ccc(-c3ccccc3)cc2)cc1
inactive: [1] 93 % of control | [2] 100 % of control and 90 % of control | [3] 104 % of control and 106 % of control | endpoint: mean survival time, dose: 200.0 mg/kg/injection, schedule: Q01DX001 (ip), vehicle: saline with Tween-80 91 % of control | [4] 87 % of control and 92 % of control | [5] 100 % of control and 101 % of control | endpoint: mean survival time, dose: 400.0 mg/kg/injection, schedule: Q01DX001 (ip), vehicle: saline with Tween-80 89 % of control | endpoint: mean survival time, dose: 400.0 mg/kg/injection, schedule: Q01DX009 (ip), vehicle: saline with Tween-80 97 % of control and 87 % of control | [6] 92 % of control

Cc1ccc(C(O)c2ccccc2)cc1 (stereo not given)
inactive: [2] 98 % of control | [4] 97 % of control

Fc1ccc(C(Cl)Cl)cc1
inactive: endpoint: mean survival time, dose: 100.0 mg/kg/injection, schedule: Q01DX009 (ip), vehicle: saline 102 % of control | endpoint: mean survival time, dose: 100.0 mg/kg/injection, schedule: Q04DX003 (ip), vehicle: saline 97 % of control and 86 % of control | endpoint: mean survival time, dose: 200.0 mg/kg/injection, schedule: Q01DX009 (ip), vehicle: saline 99 % of control | endpoint: mean survival time, dose: 200.0 mg/kg/injection, schedule: Q04DX003 (ip), vehicle: saline 101 % of control | endpoint: mean survival time, dose: 400.0 mg/kg/injection, schedule: Q04DX003 (ip), vehicle: saline 101 % of control and 89 % of control

NC(C(=O)O)c1cc(Cl)co1 (stereo not given)
inactive: [7] 105 % of control | endpoint: mean survival time, dose: 200.0 mg/kg/injection, schedule: Q04DX003 (ip), vehicle: Klucel (hydroxypropylcellulose) (HPC) 105 % of control | endpoint: mean survival time, dose: 400.0 mg/kg/injection, schedule: Q04DX003 (ip), vehicle: Klucel (hydroxypropylcellulose) (HPC) 101 % of control

CC(=O)NC(CS)C(=O)O (stereo not given)
inactive: endpoint: mean survival time, dose: 100.0 mg/kg/injection, schedule: Q01DX001 (ip), vehicle: saline 96 % of control | endpoint: mean survival time, dose: 200.0 mg/kg/injection, schedule: Q01DX001 (ip), vehicle: saline 95 % of control | endpoint: mean survival time, dose: 400.0 mg/kg/injection, schedule: Q01DX001 (ip), vehicle: saline 98 % of control | endpoint: median survival time, dose: 250.0 mg/kg/injection, schedule: Q01DX001 (ip), vehicle: saline 100 % of control | endpoint: median survival time, dose: 500.0 mg/kg/injection, schedule: Q01DX001 (ip), vehicle: none 101 % of control | endpoint: median survival time, dose: 750.0 mg/kg/injection, schedule: Q01DX001 (ip), vehicle: none 99 % of control | endpoint: median survival time, dose: 750.0 mg/kg/injection, schedule: Q01DX001 (ip), vehicle: saline 100 % of control | endpoint: median survival time, dose: 1000.0 mg/kg/injection, schedule: Q01DX001 (ip), vehicle: none 97 % of control and 106 % of control | endpoint: median survival time, dose: 1000.0 mg/kg/injection, schedule: Q01DX009 (ip), vehicle: saline 93 % of control | endpoint: median survival time, dose: 1000.0 mg/kg/injection, schedule: Q01DX014 (ip), vehicle: saline 100 % of control and 102 % of control | endpoint: median survival time, dose: 1000.0 mg/kg/injection, schedule: Q07DX003 (ip), vehicle: saline 94 % of control | endpoint: median survival time, dose: 1500.0 mg/kg/injection, schedule: Q01DX001 (ip), vehicle: none 113 % of control | endpoint: median survival time, dose: 1500.0 mg/kg/injection, schedule: Q01DX009 (ip), vehicle: saline 96 % of control | endpoint: median survival time, dose: 1500.0 mg/kg/injection, schedule: Q01DX014 (ip), vehicle: saline 102 % of control and 105 % of control | endpoint: median survival time, dose: 1500.0 mg/kg/injection, schedule: Q07DX003 (ip), vehicle: saline 94 % of control | endpoint: median survival time, dose: 2000.0 mg/kg/injection, schedule: Q01DX001 (ip), vehicle: saline 100 % of control

CC(=O)OCCc1ccc(C)cc1
inactive: [3] 94 % of control | [5] 97 % of control | [6] 94 % of control

OC1CCCCC1(c1ccccc1)c1ccccc1 (stereo not given)
inactive: [8] 94 % of control | [2] 91 % of control | [4] 91 % of control

CN(CC(O)CN)c1ccc(Cl)cc1 (stereo not given)
inactive: endpoint: mean survival time, dose: 25.0 mg/kg/injection, schedule: Q01DX001 (ip), vehicle: saline with Tween-80 104 % of control | endpoint: mean survival time, dose: 50.0 mg/kg/injection, schedule: Q01DX001 (ip), vehicle: saline with Tween-80 101 % of control | [1] 100 % of control and 103 % of control

Cc1ccc2scc3c4ccccc4nc-3c2c1
inactive: [9] 95 % of control | [10] 95 % of control

COc1cccc(/C(=C/c2ccc([N+](=O)[O-])cc2)C(=O)Nc2ccc(S(=O)(=O)F)cc2)c1
inactive: endpoint: mean survival time, dose: 100.0 mg/kg/injection, schedule: Q01DX009 (ip), vehicle: Klucel (hydroxypropylcellulose) (HPC) 101 % of control | endpoint: mean survival time, dose: 200.0 mg/kg/injection, schedule: Q01DX009 (ip), vehicle: Klucel (hydroxypropylcellulose) (HPC) 90 % of control | endpoint: mean survival time, dose: 400.0 mg/kg/injection, schedule: Q01DX009 (ip), vehicle: Klucel (hydroxypropylcellulose) (HPC) 90 % of control

Clc1ccc(/C=N/Nc2nnc(N/N=C/c3ccc(Cl)cc3Cl)c3ccccc23)c(Cl)c1
inactive: endpoint: mean survival time, dose: 50.0 mg/kg/injection, schedule: Q01DX001 (ip), vehicle: carboxymethylcellulose (CMC) 88 % of control | endpoint: mean survival time, dose: 100.0 mg/kg/injection, schedule: Q01DX001 (ip), vehicle: carboxymethylcellulose (CMC) 89 % of control | endpoint: mean survival time, dose: 200.0 mg/kg/injection, schedule: Q01DX001 (ip), vehicle: carboxymethylcellulose (CMC) 93 % of control | endpoint: mean survival time, dose: 400.0 mg/kg/injection, schedule: Q01DX001 (ip), vehicle: carboxymethylcellulose (CMC) 100 % of control

CC(Cc1ccccc1)NCCn1cnc2c1c(=O)n(C)c(=O)n2C (stereo not given)
inactive: endpoint: mean survival time, dose: 6.25 mg/kg/injection, schedule: Q01DX009 (ip), vehicle: saline 94 % of control | endpoint: mean survival time, dose: 12.5 mg/kg/injection, schedule: Q01DX009 (ip), vehicle: saline 98 % of control | [9] 94 % of control | [10] 102 % of control

Cc1c(F)c(Br)c([N+](=O)[O-])c(C)c1[N+](=O)[O-]
inactive: endpoint: mean survival time, dose: 100.0 mg/kg/injection, schedule: Q01DX001 (ip), vehicle: Klucel (hydroxypropylcellulose) (HPC) 96 % of control | endpoint: mean survival time, dose: 200.0 mg/kg/injection, schedule: Q01DX001 (ip), vehicle: Klucel (hydroxypropylcellulose) (HPC) 102 % of control | endpoint: mean survival time, dose: 400.0 mg/kg/injection, schedule: Q01DX001 (ip), vehicle: Klucel (hydroxypropylcellulose) (HPC) 102 % of control

CN(C)/N=[N+](\[O-])c1ccccc1
inactive: endpoint: mean survival time, dose: 6.25 mg/kg/injection, schedule: Q01DX009 (ip), vehicle: Klucel (hydroxypropylcellulose) (HPC) 103 % of control | endpoint: mean survival time, dose: 12.5 mg/kg/injection, schedule: Q01DX009 (ip), vehicle: Klucel (hydroxypropylcellulose) (HPC) 100 % of control and 105 % of control | endpoint: mean survival time, dose: 25.0 mg/kg/injection, schedule: Q01DX009 (ip), vehicle: Klucel (hydroxypropylcellulose) (HPC) 97 % of control and 104 % of control | endpoint: mean survival time, dose: 25.0 mg/kg/injection, schedule: Q04DX003 (ip), vehicle: Klucel (hydroxypropylcellulose) (HPC) 96 % of control | endpoint: mean survival time, dose: 50.0 mg/kg/injection, schedule: Q01DX009 (ip), vehicle: Klucel (hydroxypropylcellulose) (HPC) 100 % of control and 105 % of control | endpoint: mean survival time, dose: 50.0 mg/kg/injection, schedule: Q04DX003 (ip), vehicle: Klucel (hydroxypropylcellulose) (HPC) 95 % of control and 108 % of control | [7] 95 % of control and 105 % of control

CCCCCCCCCCCCCCCCCCCCCCCCCCCCCCCS
inactive: [11] 95 % of control | [12] 103 % of control

Cc1cc(N=Nc2ccc([N+](=O)[O-])cc2)ccc1N(C)C
inactive: [11] 97 % of control | [12] 101 % of control | endpoint: mean survival time, dose: 400.0 mg/kg/injection, schedule: Q01DX001 (ip), vehicle: other 89 % of control

S=C([S][Sn]([S]C(=S)N(c1ccccc1)c1ccccc1)([c]1ccccc1)[c]1ccccc1)N(c1ccccc1)c1ccccc1
inactive: endpoint: mean survival time, dose: 100.0 mg/kg/injection, schedule: Q01DX001 (ip), vehicle: steriod suspending solution 93 % of control | endpoint: mean survival time, dose: 200.0 mg/kg/injection, schedule: Q01DX001 (ip), vehicle: steriod suspending solution 112 % of control

CCCCCCC1N(C)CCCN1C
inactive: endpoint: mean survival time, dose: 25.0 mg/kg/injection, schedule: Q01DX009 (ip), vehicle: saline with Tween-80 98 % of control | endpoint: mean survival time, dose: 25.0 mg/kg/injection, schedule: Q04DX003 (ip), vehicle: saline with Tween-80 100 % of control | [8] 94 % of control | endpoint: mean survival time, dose: 50.0 mg/kg/injection, schedule: Q04DX003 (ip), vehicle: saline with Tween-80 98 % of control | [2] 86 % of control | endpoint: mean survival time, dose: 100.0 mg/kg/injection, schedule: Q04DX003 (ip), vehicle: saline with Tween-80 100 % of control and 103 % of control

From PubChem BioAssay AID248 (DTP/NCI, 2004)
